# Assay results as given in patent US3963711A, “Cyanomethyl sulfinyl- and sulfonyl-acetamido cephalosporins” (SmithKline Corporation, priority 1975, dated 1976).
# Legend:
# Assay type in all cases: cell-based
# [1] = tested on: S. aureus HH 127; experiment: MIC by standard agar inclusion method, S. aureus HH 127; conditions: Staphylococcus aureus, HH127
# [2] = tested on: S. aureus SK 23390; experiment: MIC by standard agar inclusion method, S. aureus SK 23390; conditions: Staphylococcus aureus, SK23390
# [3] = tested on: S. aureus Villaluz; experiment: MIC by standard agar inclusion method, S. aureus Villaluz; conditions: Staphylococcus aureus
# [4] = tested on: Strep. faecalis HH 34358; experiment: MIC by standard agar inclusion method, Strep. faecalis HH 34358; conditions: Enterococcus faecalis, HH34358
# [5] = tested on: E. Coli SK 12140; experiment: MIC by standard agar inclusion method, E. Coli SK 12140; conditions: Escherichia coli
# [6] = tested on: E. Coli HH 33779; experiment: MIC by standard agar inclusion method, E. Coli HH 33779; conditions: Escherichia coli
# [7] = tested on: Kleb. pneumo. SK 4200; experiment: MIC by standard agar inclusion method, Kleb. pneumo. SK 4200
# [8] = tested on: Kleb. pneumo. SK 1200; experiment: MIC by standard agar inclusion method, Kleb. pneumo. SK 1200
# [9] = tested on: Salmonella ATCC 12176; experiment: MIC by standard agar inclusion method, Salmonella ATCC 12176; conditions: ATCC12176
# [10] = tested on: Shigella paradysentiae; experiment: MIC by standard agar inclusion method, Shigella paradysentiae
# [11] = tested on: Pseudo. aeruginosa HH63; experiment: MIC by standard agar inclusion method, Pseudo. aeruginosa HH63; conditions: Pseudomonas aeruginosa
# [12] = tested on: Serratia marc. ATCC 13880; experiment: MIC by standard agar inclusion method, Serratia marc. ATCC 13880; conditions: ATCC13880
# [13] = tested on: Entero. aerogenes ATCC 13048; experiment: MIC by standard agar inclusion method, Entero. aerogenes ATCC 13048; conditions: Klebsiella aerogenes, ATCC13048
SMILES,MIC [1],MIC [2],MIC [3],MIC [4],MIC [5],MIC [6],MIC [7],MIC [8],MIC [9],MIC [10],MIC [11],MIC [12],MIC [13]
"Cc1nnc(SCC2=C(C(=O)O)N3C(=O)C(NC(=O)CSCC#N)[C@H]3SC2)s1 (stereo partly drawn) [Compound 21436, 7-Cyanomethylmercaptoacetamido-3-(5-methyl-1,3,4-thiadiazol-2-ylthiomethyl)-3-cephem-4-carboxylic acid]",0.2 µg/mL,0.1 µg/mL,25 µg/mL,6.3 µg/mL,1.6 µg/mL,6.3 µg/mL,1.6 µg/mL,0.8 µg/mL,1.6 µg/mL,1.6 µg/mL,> 200 µg/mL,> 200 µg/mL,> 200 µg/mL
"Cn1nnnc1SCC1=C(C(=O)O)N2C(=O)C(NC(=O)CS(=O)(=O)CC#N)[C@H]2SC1 (stereo partly drawn) [Compound 72346, 7-Cyanomethylsulfonylacetamido-3-(1-methyltetrazol-5-ylthiomethyl)-3-cephem-4-carboxylic acid]",1.6 µg/mL,1.6 µg/mL,25 µg/mL,50 µg/mL,1.6 µg/mL,3.1 µg/mL,1.6 µg/mL,1.6 µg/mL,1.6 µg/mL,1.6 µg/mL,> 200 µg/mL,> 200 µg/mL,6.3 µg/mL
"Cc1nnc(SCC2=C(C(=O)O)N3C(=O)C(NC(=O)CS(=O)(=O)CC#N)[C@H]3SC2)s1 (stereo partly drawn) [Compound 09346, 7-Cyanomethylsulfonylacetamido-3-(5-methyl-1,3,4-thiadiazol-2-ylthiomethyl)-3-cephem-4-carboxylic acid]",1.6 µg/mL,1.6 µg/mL,100 µg/mL,25 µg/mL,3.1 µg/mL,6.3 µg/mL,6.3 µg/mL,3.1 µg/mL,6.3 µg/mL,3.1 µg/mL,> 200 µg/mL,> 200 µg/mL,12.5 µg/mL
"Cn1nnnc1SCC1=C(C(=O)O)N2C(=O)C(NC(=O)CSCC#N)[C@H]2SC1 (stereo partly drawn) [Compound 94436, 7-Cyanomethylmercaptoacetamido-3-(1-methyltetrazol-5-ylthiomethyl)-3-cephem-4-carboxylic acid]",0.4 µg/mL,0.4 µg/mL,12.5 µg/mL,50 µg/mL,0.8 µg/mL,1.6 µg/mL,1.6 µg/mL,1.6 µg/mL,0.4 µg/mL,0.8 µg/mL,> 200 µg/mL,> 200 µg/mL,12.5 µg/mL
"CC(=O)OCC1=C(C(=O)O)N2C(=O)C(NC(=O)CS(=O)(=O)CC#N)C2SC1 (stereo not drawn) [Compound 90246, 7-cyanomethylsulfonylacetamidocephalosporanic acid]",1.6 µg/mL,1.6 µg/mL,25 µg/mL,50 µg/mL,6.3 µg/mL,25 µg/mL,25 µg/mL,6.3 µg/mL,3.1 µg/mL,6.3 µg/mL,> 200 µg/mL,> 200 µg/mL,50 µg/mL
"CC(=O)OCC1=C(C(=O)O)N2C(=O)C(NC(=O)CSCC#N)C2SC1 (stereo not drawn) [Compound 79336, 7-Cyanomethylmercaptoacetamidocephalosporanic acid]",0.2 µg/mL,0.8 µg/mL,25 µg/mL,12.5 µg/mL,6.3 µg/mL,12.5 µg/mL,1.6 µg/mL,6.3 µg/mL,1.6 µg/mL,6.3 µg/mL,> 200 µg/mL,> 200 µg/mL,> 200 µg/mL
